The results in this text go back to BindingDB's records for doi:10.1016/s0028-3908(05)80009-7 (Universit&Eacute, 1994).

The target of the assay is T1, Pituitary adenylate cyclase-activating polypeptide (Rattus norvegicus, UniProt P13589).
T1 sequence (P13589 whole entry): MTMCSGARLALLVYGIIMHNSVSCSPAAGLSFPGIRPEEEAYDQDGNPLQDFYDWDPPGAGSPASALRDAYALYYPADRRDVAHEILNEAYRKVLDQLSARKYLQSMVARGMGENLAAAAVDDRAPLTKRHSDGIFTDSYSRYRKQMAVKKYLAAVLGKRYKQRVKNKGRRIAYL

Where a SMILES comes first, the peptide text is derived from it. [ ]: non-standard residue; d: D form. ξ: configuration not given here. Ile(3ξ) = CCC(C)[C@H](N)C(=O)O

For the compound `CCC(C)[C@H](NC(=O)CNC(=O)[C@H](CC(=O)O)NC(=O)[C@H](Cc1ccccc1)NC(=O)[C@@H](N)Cc1cnc[nH]1)C(=O)N[C@@H](Cc1ccccc1)C(=O)N[C@H](C(=O)N[C@@H](CC(=O)O)C(=O)N[C@@H](CO)C(=O)N[C@@H](Cc1ccc(O)cc1)C(=O)N[C@@H](CO)C(=O)N[C@@H](CCCN=C(N)N)C(=O)N[C@@H](Cc1ccc(O)cc1)C(=O)N[C@@H](CCCN=C(N)N)C(=O)N[C@@H](CCCCN)C(=O)N[C@@H](CCC(N)=O)C(=O)N[C@@H](CCSC)C(=O)N[C@@H](C)C(=O)N[C@H](C(=O)N[C@@H](CCCCN)C(=O)N[C@@H](CCCCN)C(=O)N[C@@H](Cc1ccc(O)cc1)C(=O)N[C@@H](CC(C)C)C(=O)N[C@@H](C)C(=O)N[C@@H](C)C(=O)N[C@H](C(=O)N[C@@H](CC(C)C)C(=O)NCC(=O)N[C@@H](CCCCN)C(=O)N[C@@H](CCCN=C(N)N)C(=O)N[C@@H](Cc1ccc(O)cc1)C(=O)N[C@@H](CCCCN)C(=O)N[C@@H](CCC(N)=O)C(=O)N[C@@H](CCCN=C(N)N)C(=O)N[C@H](C(=O)N[C@@H](CCCCN)C(=O)N[C@@H](CC(N)=O)C(=O)N[C@@H](CCCCN)C(N)=O)C(C)C)C(C)C)C(C)C)[C@@H](C)O` (stereo partly specified) [[Phe2]PACAP(1-38)] (H-HFDG[Ile(3ξ)]FTDSYSRYRKQMAVKKYLAAVLGKRYKQRVKNK-NH2), the affinity, expressed as Ki, was 2 nM. With `CSCC[C@H](NC(=O)[C@H](CCC(N)=O)NC(=O)[C@H](CCCCN)NC(=O)[C@H](CCCNC(=N)N)NC(=O)[C@H](Cc1ccc(O)cc1)NC(=O)[C@H](CCCNC(=N)N)NC(=O)[C@H](CO)NC(=O)[C@H](Cc1ccc(O)cc1)NC(=O)[C@H](CO)NC(=O)[C@H](CC(=O)O)NC(=O)[C@@H](NC(=O)[C@@H](N)Cc1ccccc1)[C@@H](C)O)C(=O)N[C@@H](C)C(=O)N[C@H](C(=O)N[C@@H](CCCCN)C(=O)N[C@@H](CCCCN)C(=O)N[C@@H](Cc1ccc(O)cc1)C(=O)N[C@@H](CC(C)C)C(=O)N[C@@H](C)C(=O)N[C@@H](C)C(=O)N[C@H](C(=O)N[C@@H](CC(C)C)C(=O)NCC(=O)N[C@@H](CCCCN)C(=O)N[C@@H](CCCNC(=N)N)C(=O)N[C@@H](Cc1ccc(O)cc1)C(=O)N[C@@H](CCCCN)C(=O)N[C@@H](CCC(N)=O)C(=O)N[C@@H](CCCNC(=N)N)C(=O)N[C@H](C(=O)N[C@@H](CCCCN)C(=O)N[C@@H](CC(N)=O)C(=O)N[C@@H](CCCCN)C(N)=O)C(C)C)C(C)C)C(C)C` the figure was 2 nM; with “H-TDSYSRYRKQMAVKKYLAAVLGKRYKQRVKNK-NH2 [PACAP(7-38)]”, 10 nM. With `CC[C@H](C)[C@H](NC(=O)CNC(=O)[C@H](CC(=O)O)NC(=O)[C@H](CO)NC(=O)[C@@H](N)Cc1cnc[nH]1)C(=O)N[C@@H](Cc1ccccc1)C(=O)N[C@H](C(=O)N[C@@H](CC(=O)O)C(=O)N[C@@H](CO)C(=O)N[C@@H](Cc1ccc(O)cc1)C(=O)N[C@@H](CO)C(=O)N[C@@H](CCCNC(=N)N)C(=O)N[C@@H](Cc1ccc(O)cc1)C(=O)N[C@@H](CCCNC(=N)N)C(=O)N[C@@H](CCCCN)C(=O)N[C@@H](CCC(N)=O)C(=O)N[C@@H](CCSC)C(=O)N[C@@H](C)C(=O)N[C@H](C(=O)N[C@@H](CCCCN)C(=O)N[C@@H](CCCCN)C(=O)N[C@@H](Cc1ccc(O)cc1)C(=O)N[C@@H](CC(C)C)C(=O)N[C@@H](C)C(=O)N[C@@H](C)C(=O)N[C@H](C(=O)N[C@@H](CC(C)C)C(=O)NCC(=O)N[C@@H](CCCCN)C(=O)N[C@@H](CCCNC(=N)N)C(=O)N[C@@H](Cc1ccc(O)cc1)C(=O)N[C@@H](CCCCN)C(=O)N[C@@H](CCC(N)=O)C(=O)N[C@@H](CCCNC(=N)N)C(=O)N[C@H](C(=O)N[C@@H](CCCCN)C(=O)N[C@@H](CC(N)=O)C(=O)N[C@@H](CCCCN)C(N)=O)C(C)C)C(C)C)C(C)C)[C@@H](C)O` [PACAP] the figure was 0.3 nM.

In the case of “H-YSRYRKQMAVKKYLAAVLGKRYKQRVKNK-NH2 [PACAP(10-38)]”, the Ki is 90 nM. Next, H-SYSRYRKQMAVKKYLAAVL-NH2 [PACAP(9-27)]: 2000 nM; `CCC(C)[C@H](NC(=O)CN)C(=O)N[C@@H](Cc1ccccc1)C(=O)N[C@H](C(=O)N[C@@H](CC(=O)O)C(=O)N[C@@H](CO)C(=O)N[C@@H](Cc1ccc(O)cc1)C(=O)N[C@@H](CO)C(=O)N[C@@H](CCCN=C(N)N)C(=O)N[C@@H](Cc1ccc(O)cc1)C(=O)N[C@@H](CCCN=C(N)N)C(=O)N[C@@H](CCCCN)C(=O)N[C@@H](CCC(N)=O)C(=O)N[C@@H](CCSC)C(=O)N[C@@H](C)C(=O)N[C@H](C(=O)N[C@@H](CCCCN)C(=O)N[C@@H](CCCCN)C(=O)N[C@@H](Cc1ccc(O)cc1)C(=O)N[C@@H](CC(C)C)C(=O)N[C@@H](C)C(=O)N[C@@H](C)C(=O)N[C@H](C(=O)N[C@@H](CC(C)C)C(=O)NCC(=O)N[C@@H](CCCCN)C(=O)N[C@@H](CCCN=C(N)N)C(=O)N[C@@H](Cc1ccc(O)cc1)C(=O)N[C@@H](CCCCN)C(=O)N[C@@H](CCC(N)=O)C(=O)N[C@@H](CCCN=C(N)N)C(=O)N[C@H](C(=O)N[C@@H](CCCCN)C(=O)N[C@@H](CC(N)=O)C(=O)N[C@@H](CCCCN)C(N)=O)C(C)C)C(C)C)C(C)C)[C@@H](C)O` (stereo partly specified) [PACAP(4-38)] (H-G[Ile(3ξ)]FTDSYSRYRKQMAVKKYLAAVLGKRYKQRVKNK-NH2): 20 nM.

“H-FTDSYSRYRKQMAVKKYLAAVLGKRYKQRV-NH2 [PACAP(6-35)]”: the Ki was 300 nM.

As to `CC[C@H](C)[C@H](NC(=O)CNC(=O)[C@H](CC(N)=O)NC(=O)[C@H](CO)NC(=O)[C@@H](N)Cc1cnc[nH]1)C(=O)N[C@@H](Cc1ccccc1)C(=O)N[C@H](C(=O)N[C@@H](CC(=O)O)C(=O)N[C@@H](CO)C(=O)N[C@@H](Cc1ccc(O)cc1)C(=O)N[C@@H](CO)C(=O)N[C@@H](CCCNC(=N)N)C(=O)N[C@@H](Cc1ccc(O)cc1)C(=O)N[C@@H](CCCNC(=N)N)C(=O)N[C@@H](CCCCN)C(=O)N[C@@H](CCC(N)=O)C(=O)N[C@@H](CCSC)C(=O)N[C@@H](C)C(=O)N[C@H](C(=O)N[C@@H](CCCCN)C(=O)N[C@@H](CCCCN)C(=O)N[C@@H](Cc1ccc(O)cc1)C(=O)N[C@@H](CC(C)C)C(=O)N[C@@H](C)C(=O)N[C@@H](C)C(=O)N[C@H](C(=O)N[C@@H](CC(C)C)C(N)=O)C(C)C)C(C)C)[C@@H](C)O` [[Asn3]PACAP(1-27)], affinity was put at a Ki of 4000 nM. Against the preceding compound, the Ki is about 13-fold higher.

Consider `CC[C@H](C)[C@H](NC(=O)CNC(=O)[C@H](CC(=O)O)NC(=O)[C@H](CCCN=C(N)N)NC(=O)[C@@H](N)Cc1cnc[nH]1)C(=O)N[C@@H](Cc1ccccc1)C(=O)N[C@H](C(=O)N[C@@H](CC(=O)O)C(=O)N[C@@H](CO)C(=O)N[C@@H](Cc1ccc(O)cc1)C(=O)N[C@@H](CO)C(=O)N[C@@H](CCCN=C(N)N)C(=O)N[C@@H](Cc1ccc(O)cc1)C(=O)N[C@@H](CCCN=C(N)N)C(=O)N[C@@H](CCCCN)C(=O)N[C@@H](CCC(N)=O)C(=O)N[C@@H](CCSC)C(=O)N[C@@H](C)C(=O)N[C@H](C(=O)N[C@@H](CCCCN)C(=O)N[C@@H](CCCCN)C(=O)N[C@@H](Cc1ccc(O)cc1)C(=O)N[C@@H](CC(C)C)C(=O)N[C@@H](C)C(=O)N[C@@H](C)C(=O)N[C@H](C(=O)N[C@@H](CC(C)C)C(=O)NCC(=O)N[C@@H](CCCCN)C(=O)N[C@@H](CCCN=C(N)N)C(=O)N[C@@H](Cc1ccc(O)cc1)C(=O)N[C@@H](CCCCN)C(=O)N[C@@H](CCC(N)=O)C(=O)N[C@@H](CCCN=C(N)N)C(=O)N[C@H](C(=O)N[C@@H](CCCCN)C(=O)N[C@@H](CC(N)=O)C(=O)N[C@@H](CCCCN)C(N)=O)C(C)C)C(C)C)C(C)C)[C@@H](C)O` [[Arg2]PACAP(1-38)], for which the Ki turned out to be 10 nM. With H-SRYRKQMAVKKYLAAVL-NH2 [PACAP(11-27)] the figure was 6000 nM.

As a reminder, the Ki is the dissociation constant of the complex between target and ligand, obtained from inhibition or displacement. A low value points to higher affinity.
